Earlier results on one compound are cited in patent publication US20250228825A1, “COMPOSITIONS OF RAPAMYCIN AND THEIR USE IN THE TREATMENT OF M[…] MALFORMATION” (priority 2021, published 2025).

Molecules are shown by their SMILES.

The data set deals with LM lesions. The following applies: patients with LM.

Turning to `CO[C@H]1C[C@@H]2CC[C@@H](C)[C@@](O)(O2)C(=O)C(=O)N2CCCC[C@H]2C(=O)O[C@H]([C@H](C)C[C@@H]2CC[C@@H](O)[C@H](OC)C2)CC(=O)[C@H](C)/C=C(\C)[C@@H](O)[C@@H](OC)C(=O)[C@H](C)C[C@H](C)/C=C/C=C/C=C/1C` [sirolimus, rapamycin], the effectiveness (reported in another review) is 84.5%. Also, the “pooled clinical effectiveness (partial or complete response)” value (reported in one review) was 94.9%.
